Active and inactive are the calls of the source. No cut-off for these calls is given here.
Experiments:
A549 [1] = test: Cytotoxicity against human A549 cells assessed as cell viability at 50 to 100 uM after 48 hrs by WST-8 staining based CCK8 assay; conditions: a549, 48 h
A549 [2] = test: Inhibition of TGF-beta1 induced epithelial-mesenchymal transition in human A549 cells assessed as morphological changes at 5 to 10 uM preincubated for 2 hrs followed by TGF-beta1 addition; assay type: functional, cell-based
A549 [3] = test: Cytotoxicity against human A549 cells assessed as cell viability at 1 to 25 uM after 48 hrs by WST-8 staining based CCK8 assay; conditions: a549, 48 h
A549 [4] = test: Inhibition of TGF-beta1 induced epithelial-mesenchymal transition in human A549 cells assessed as reduction in phosphorylated SMAD2 level preincubated for 2 hrs followed by TGF-beta1 addition by Western blot method; assay type: functional, cell-based
A549 [5] = test: Inhibition of TGF-beta1 induced epithelial-mesenchymal transition in human A549 cells assessed as reduction in phosphorylated SMAD3 level preincubated for 2 hrs followed by TGF-beta1 addition by Western blot method; assay type: functional, cell-based
A549 [6] = test: Inhibition of TGF-beta1 response promoter transactivation mediated SMAD2 and SMAD3 phosphorylation in human A549 cells at 5 to 10 uM preincubated for 2 hrs by dual luciferase reporter assay; assay type: functional, cell-based
A549 [7] = test: Inhibition of TGF-beta1 induced epithelial-mesenchymal transition in human A549 cells assessed as reduction in nuclear SMAD2 level preincubated for 2 hrs by Western blot method; assay type: functional, cell-based
A549 [8] = test: Inhibition of TGF-beta1 induced epithelial-mesenchymal transition in human A549 cells assessed as reduction in nuclear phosphorylated SMAD2 level preincubated for 2 hrs by Western blot method; assay type: functional, cell-based
A549 [9] = test: Inhibition of TGF-beta1 induced epithelial-mesenchymal transition in human A549 cells assessed as reduction in nuclear SMAD3 level preincubated for 2 hrs by Western blot method; assay type: functional, cell-based
A549 [10] = test: Inhibition of TGF-beta1 induced epithelial-mesenchymal transition in human A549 cells assessed as reduction in nuclear phosphorylated SMAD3 level preincubated for 2 hrs by Western blot method; assay type: functional, cell-based
A549 [11] = test: Inhibition of TGF-beta1-induced downregulation of epithelial marker E-cadherin expression in human A549 cells at 5 to 10 uM preincubated for 2 hrs by Western blot method; assay type: functional, cell-based
A549 [12] = test: Inhibition of TGF-beta1-induced upregulation of mesenchymal marker N-cadherin expression in human A549 cells at 5 to 10 uM preincubated for 2 hrs by Western blot method; assay type: functional, cell-based
A549 [13] = test: Inhibition of TGF-beta1-induced upregulation of Snail protein expression in human A549 cells preincubated for 2 hrs by Western blot method; assay type: functional, cell-based
A549 [14] = test: Inhibition of TGF-beta1-induced […] Snail promoter activity in human A549 cells at 5 to 10 uM preincubated for 2 hrs by dual luciferase reporter assay; assay type: functional, cell-based
A549 [15] = test: Inhibition of TGF-beta1-induced plasminogen activator inhibitor type 1 expression in human A549 cells assessed at 5 to 10 uM preincubated for 2 hrs by Western blot method; assay type: functional, cell-based
A549 [16] = test: Inhibition of TGF-beta1 induced epithelial-mesenchymal transition in human A549 cells assessed as reduction in ITGA5 level AT 5 AND 10 uM incubated for 48 hrs by qRT-PCR method; assay type: functional, cell-based
A549 [17] = test: Inhibition of TGF-beta1 induced epithelial-mesenchymal transition in human A549 cells assessed as reduction in CALD1 level AT 5 AND 10 uM incubated for 48 hrs by qRT-PCR method; assay type: functional, cell-based
A549 [18] = test: Inhibition of TGF-beta1 induced epithelial-mesenchymal transition in human A549 cells assessed as reduction in […] level AT 5 AND 10 uM incubated for 48 hrs by qRT-PCR method; assay type: functional, cell-based
A549 [19] = test: Inhibition of TGF-beta1 induced epithelial-mesenchymal transition in human A549 cells assessed as reduction in CDH2 level AT 5 AND 10 uM incubated for 48 hrs by qRT-PCR method; assay type: functional, cell-based
A549 [20] = test: Inhibition of TGF-beta1 induced epithelial-mesenchymal transition in human A549 cells assessed as reduction in COL5A2 level AT 5 AND 10 uM incubated for 48 hrs by qRT-PCR method; assay type: functional, cell-based
A549 [21] = test: Inhibition of TGF-beta1 induced epithelial-mesenchymal transition in human A549 cells assessed as reduction in SNAI1 level AT 5 AND 10 uM incubated for 48 hrs by qRT-PCR method; assay type: functional, cell-based
A549 [22] = test: Inhibition of TGF-beta1 induced epithelial-mesenchymal transition in human A549 cells assessed as reduction in SNAI2 level AT 5 AND 10 uM incubated for 48 hrs by qRT-PCR method; assay type: functional, cell-based
A549 [23] = test: Inhibition of TGF-beta1 induced epithelial-mesenchymal transition in human A549 cells assessed as reduction in SPARC level AT 5 AND 10 uM incubated for 48 hrs by qRT-PCR method; assay type: functional, cell-based
A549 [24] = test: Inhibition of TGF-beta1 induced epithelial-mesenchymal transition in human A549 cells assessed as reduction in PAI1 level AT 5 AND 10 uM incubated for 48 hrs by qRT-PCR method; assay type: functional, cell-based
A549 [25] = test: Inhibition of TGF-beta1 induced cell migration in human A549 cells assessed as reduction in cell surface area incubated for 48 hrs by wound healing assay; assay type: functional, cell-based
A549 [26] = test: Inhibition of TGF-beta1 stimulated invasion in human A549 cells at 5 to 10 uM incubated for 48 hrs by matrigel invasion assay; assay type: functional, cell-based
A549 [27] = test: Inhibition of TGF-beta1-induced matrix metalloproteinase-9 expression in human A549 cells at 5 to 10 uM preincubated for 2 hrs by Western blot method; assay type: functional, cell-based

O=C(O[C@@H]1O[C@@H]2COC(=O)c3cc(O)c(O)c(O)c3-c3c(cc(O)c(O)c3O)C(=O)O[C@H]2[C@@H]2OC(=O)c3cc(O)c(O)c(O)c3-c3c(cc(O)c(O)c3O)C(=O)O[C@H]12)c1cc(O)c(O)c(Oc2c(O)c(O)c(O)c3c2C(=O)O[C@H]2[C@@H]4OC(=O)c5cc(O)c(O)c(O)c5-c5c(cc(O)c(O)c5O)C(=O)O[C@@H]4[C@@H](OC(=O)c4cc(O)c(O)c(O)c4)O[C@@H]2COC(=O)c2cc(O)c(O)c(O)c2-3)c1
Activity (A549 [1]): Toxic
inhibition (A549 [2]): Active
Activity (A549 [3]): Non-toxic
inhibition (A549 [4]): Dose-dependent effect
inhibition (A549 [5]): Dose-dependent effect
inhibition (A549 [6]): Active
inhibition (A549 [7]): Dose-dependent effect
inhibition (A549 [8]): Dose-dependent effect
inhibition (A549 [9]): Dose-dependent effect
inhibition (A549 [10]): Dose-dependent effect
inhibition (A549 [11]): Active
inhibition (A549 [12]): Active
inhibition (A549 [13]): Dose-dependent effect
inhibition (A549 [14]): Active
inhibition (A549 [15]): Dose-dependent effect
inhibition (A549 [16]): Active
inhibition (A549 [17]): Active
inhibition (A549 [18]): Active
inhibition (A549 [19]): Active
inhibition (A549 [20]): Active
inhibition (A549 [21]): Active
inhibition (A549 [22]): Active
inhibition (A549 [23]): Active
inhibition (A549 [24]): Active
inhibition (A549 [25]): Dose-dependent effect
inhibition (A549 [26]): Active
inhibition (A549 [27]): Active

From ChEMBL document CHEMBL3734712, “Sanguiin H6 suppresses TGF-β induction of the epithelial-mesenchymal transition and inhibits migration and invasion in A549 lung cancer” (Bioorg Med Chem Lett, 2015)
